Reference: patent US10772886B2, “CXCR-2 inhibitors for treating crystal arthropathy disorders” (ARDEA BIOSCIENCES, INC., priority 2016, dated 2020)
Where two headings read alike, the source gives them in different places.

Experiments:
[1] = tested on: rat air pouch model of crystal-induced arthropathy (MSU); experiment: Rat air pouch model, Example 8 (Compound 3 in combination with colchicine); assay type: in vivo
Experimental: Sodium hydroxide (40 g, Fisher Scientific) was dissolved in de-ionized water (100 mL, dH2O) to provide a 10N solution. Uric acid (16 g, Sigma) was added to de-ionized water (3400 mL) containing sodium hydroxide solution (11.8 mL, 10N) and heated to 60° C. with constant stirring. […] The resulting clear solution was cooled to 4-8° C., resulting in the formation of crystals, which were isolated by filtration, washed three times with de-ionized wa[…]) and dried at 37° C. The dried mono sodium urate crystals were sifted into an air-tight container for storage. […] Methylcellulose (0.4 g, Sigma) was dissolved in de-ionized water (100 mL) to provide a 0.4% solution used as vehicle. […] Test compounds were suspended in vehicle to provide the desired concentrations, and diluted accordingly. […] Male Sprague-Dawley rats (Charles River Laboratories, 160-180 g) were received, individually examined and housed in cages of five rats each. The animals were in apparent good health with no clinical signs of disease or distress. The rats were placed in quarantine with daily inspections, ear notched for identification purposes and shaved at the nape of the neck. The rats were anesthetized (isoflurane), and the nape of the neck was cleansed with 70% isopropanol (Butler Animal Health Supply) followed by povidone-iodine solution (Ricca Chemical Co.). Sterile air (30 mL, 0.2 μm, Millipore) was injected subcutaneously using a 23 G×11⁄2 inch needle fixed to a 30 mL syringe. The rats were returned to routine housing with no adverse reactions observed. The rats were anesthetized (isoflurane), and the nape of the neck was cleansed with 70% isopropanol (Butler Animal Health Supply) followed by povidone-iodine solution (Ricca Chemical Co.). Sterile air (15 mL, 0.11 μm, Millipore) was injected subcutaneously using a 23 G×11⁄2 inch needle fixed to a 20 mL syringe. The rats were returned to routine housing with no adverse reactions observed. The rats were weighed and sorted into treatment groups based on average body weight. As appropriate, the rats were dosed orally with test compound or vehicle (saline alone). […] Thirty minutes after SC injection or two hours after PO dosing, MSU (15 mL) was injected into the air pouch using an 18 G×2 inch needle fitted to a 20 mL syringe. Control group was injected with 15 mL sterile saline (vehicle). The injection sites were closed (collodion, Macron) and the rats returned to their cages with no adverse effects observed. Four hours after MSU/saline injection, the rats were anesthetized and heparinized saline (5 mL, 10 U/mL) was injected into the air pouch. […] An aliquot of the exudate was transferred to green Eppendorf tubes for total white blood cell (WBC) measurement. After allowing the MSU crystals to settle out for ten minutes, an aliquot of the exudate was transferred to heparinized microtainer tubes (Becton Dickinson) for differential white blood cell counts. The remainder of the exudate was centrifuged and an aliquot of the supernatants was dispensed to labeled clear Eppendorf tubes and stored at -80° C. The rats were exsanguinated into pre-chilled serum separator tubes, processed to serum, and 0.5 mL aliquot was stored at -80° C. in labeled Eppendorf tubes. […] [table]

[2] = in vivo; cited from earlier work
[3] = cited from earlier work
[4] = tested on: neutrophils; experiment: Cell migration (chemotaxis) assay, neutrophil counts; assay type: cell-based; settings: 10 μM; MSU-conditioned media; FIG. 1A
[5] = tested on: PBMCs; experiment: Cell migration (chemotaxis) assay, PBMC counts; assay type: cell-based; settings: 10 μM; MSU crystal conditioned media; FIG. 1B
Experimental: Primary blood monocytes (PMBC) were obtained from the lymphocyte layer (buffy coat) of peripheral blood from normal donors. Each leukopack (Interstate Blood Bank) was diluted with an equal volume of PBS, and 35 mL of blood preparation was over-laid onto 15 mL of Ficoll-Paque™ PLUS (GE Healthcare Bio-Sciences). Tubes were centrifuged at 700×g without breaks for 30 minutes at room temperature. The buffy coat interface was removed, added to PBS (40 mL), and centrifuged at 300×g. Any remaining erythrocytes in the cell pellet were lysed by incubating cells in red blood cell lysis buffer (10 mL, R&D Systems) for 10 minutes at room temperature. Following lysis, PBS (40 mL) was added and the cells centrifuged for 5 minutes at 200×g. The pellet was washed once with PBS and re-suspended in complete RPMI and seeded onto a BD Falcon™ 100 mm tissue culture dish (Cat. No. 353003). After one hour, the media was aspirated and the adherent cells (predominantly monocytes) were harvested using a cell scraper and used in chemotaxis assays. Chemotaxis was assayed in 48-well plates with BD Falcon FluoroBlok Multiwell inserts with 3 μm pores (Cat. No. 351161 or 351162) coated with hFN. […] Fluorescence emitted from cells that had migrated to the bottom surface of the insert was measured at various time points. Cells labeled with Calcein AM were read at 485/530 nm (Ex/Em) wavelength. […]

[6] = rat; cited from earlier work
[7] = cited from earlier work; remark: listed apart in the source
[8] = target: T1, CXCR-2 (Homo sapiens, UniProt P25025); settings: in vitro; cited from earlier work
T1 sequence (P25025 1-360): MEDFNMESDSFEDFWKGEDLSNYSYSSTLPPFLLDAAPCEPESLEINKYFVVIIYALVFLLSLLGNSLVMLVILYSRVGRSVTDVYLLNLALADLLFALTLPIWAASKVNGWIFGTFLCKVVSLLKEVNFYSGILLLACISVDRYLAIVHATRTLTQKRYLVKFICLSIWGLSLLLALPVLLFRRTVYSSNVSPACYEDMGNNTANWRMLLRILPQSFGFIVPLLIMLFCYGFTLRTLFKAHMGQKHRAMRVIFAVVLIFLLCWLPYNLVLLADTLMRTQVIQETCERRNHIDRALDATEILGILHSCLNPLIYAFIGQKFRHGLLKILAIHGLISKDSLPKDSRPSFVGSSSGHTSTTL

[9] = 10.0 umol/kg PO + Colchicine 0.3 mpk SC, Group 10

For COc1cc2c(c(OC)c1OC)-c1ccc(OC)c(=O)cc1[C@@H](NC(C)=O)CC2 [Colchicine, COLCHICINE, reference compound], the “Avg Exudate Vol” value ([1]; 0.3 mpk SC, Group 3) was 11.88 mL, the “Avg Total WBC” value ([1]; 0.3 mpk SC, Group 3) was 170 ×10^6 and the Neutrophils ([1]; 0.3 mpk SC, Group 3) was 121.8 ×10^6. For the same compound, the “Avg Exudate Vol” value ([1]; 0.5 mpk SC, Group 4) was 7.62 mL, the “Avg Total WBC” value ([1]; 0.5 mpk SC, Group 4) was 96.3 ×10^6 and the Neutrophils ([1]; 0.5 mpk SC, Group 4) was 64.6 ×10^6. For the same compound, the “Avg Exudate Vol” value ([1]; 1.0 mpk SC, Group 5) was 6.8 mL, the “Avg Total WBC” value ([1]; 1.0 mpk SC, Group 5) was 41.5 ×10^6 and the Neutrophils ([1]; 1.0 mpk SC, Group 5) was 7.6 ×10^6. The “eliminated unchanged in the urine” value [2] was 10-20%, the gastrointestinal side effects ([3]; lower dose regimen: 1.2 mg at onset of acute gout attack, then 0.6 mg after one hour) was 24% and the gastrointestinal side effects ([3]; standard dose regimen: 1.2 mg at onset of acute gout attack, then 0.6 mg every hour for 6 hours) was 73%. The “Severe diarrhea, % of patients” value ([3]; standard dose regimen) was 19% and the “vomiting, % of patients” value ([3]; standard dose regimen) was 15%.
With CC[C@@H](Nc1c(Nc2cccc(C(=O)N(C)C)c2O)c(=O)c1=O)c1ccc(C)o1 [Compound 2, (R)-2-hydroxy-N,N-dimethyl-3-((2-((1-(5-methylfuran-2-yl)propyl)amino)-3,4-dioxocyclobut-1-en-1-yl)amino)benzamide] the “inhibition of migration in neutrophils” value [4] was “significant inhibition of migration” and the “inhibition in migration in PBMCs” value [5] was “significant inhibition in migration”.
In the case of C[C@@H](Oc1cc(NS(=O)(=O)N2CCC2)nc(SCc2cccc(F)c2F)n1)[C@@H](O)CO [Compound 3, N-(2-((2,3-difluorobenzyl)thio)-6-(((2R,3S)-3,4-dihydroxybutan-2-yl)oxy)pyrimidin-4-yl)azetidine-1-sulfonamide], the “Avg Exudate Vol” value [1, 9] is reported as 9.46 mL, the “Avg Total WBC” value [1, 9] is reported as 69.1 ×10^6 and the Neutrophils [1, 9] is reported as 53.1 ×10^6. The “Avg Exudate Vol” value ([1]; 10.0 umol/kg PO, Group 6) was 10.93 mL, the “Avg Total WBC” value ([1]; 10.0 umol/kg PO, Group 6) was 118 ×10^6 and the Neutrophils ([1]; 10.0 umol/kg PO, Group 6) was 83.3 ×10^6. For the same compound, the “Avg Exudate Vol” value ([1]; 30.0 umol/kg PO, Group 7) was 8.42 mL, the “Avg Total WBC” value ([1]; 30.0 umol/kg PO, Group 7) was 70.5 ×10^6 and the Neutrophils ([1]; 30.0 umol/kg PO, Group 7) was 40.3 ×10^6. The “Avg Exudate Vol” value ([1]; 100 umol/kg PO, Group 8) was 6.56 mL, the “Avg Total WBC” value ([1]; 100 umol/kg PO, Group 8) was 56.1 ×10^6 and the Neutrophils ([1]; 100 umol/kg PO, Group 8) was 25.2 ×10^6. The “Avg Exudate Vol” value ([1]; 300 umol/kg PO, Group 9) was 5.7 mL, the “Avg Total WBC” value ([1]; 300 umol/kg PO, Group 9) was 24.7 ×10^6 and the Neutrophils ([1]; 300 umol/kg PO, Group 9) was 5.3 ×10^6. The bioavailability [6] was 49%, the solubility properties [7] was “good” and the potency [8] was “high”.
